Results on one substance are retold here after patent US20210071180A1, “MICRORNA 584-5P COMPOSITIONS AND METHODS FOR TREATING CANCER” (BOARD OF REGENTS, THE UNIVERSY OF TEXAS SYSTEM, priority 2018, published 2021).

Data set [1] has as its system D556Med cells. Briefly: c-Myc overexpression rescue, cell viability/clonogenic/migration. The class given is cell-based. The conditions noted are these: cells transfected with c-Myc expression vector. Here is the method: FIG. 15A depicts a photomicrograph showing migrated MB cells transfected with control plasmid, c-Myc overexpression plasmid or c-Myc overexpression plasmid+miR-584-5p mimic.
Because c-Myc supports cancer stem cell growth, promotes radioresistance (Gravina, G. L. et al. Radiat Res 185, 411-422, (2016)), and has elevated levels in VCR-resistant cancer cells (He, Y., Zhang, J., Zhang, J. & Yuan, Y. Chin Med J (Engl) 113, 848-851 (2000)), it was tested whether miR-584-5p and its target genes may regulate c-Myc-amplified MB growth and therapy sensitization by targeting c-Myc levels/functions. […] In FIG. 14D, the p-values were calculated using standard Student t-tests. Error bars represent mean±SEM. Because no predicted miR-584-5p binding site exists in the c-Myc 3′-UTR, miR-584-5p probably regulates c-Myc levels indirectly. To test that possibility, it was assessed whether miR-584-5p target genes may regulate c-Myc levels in MB. Moreover, eIF4E1 (not eIF4E3) induced c-Myc protein expression in diffuse B-cell lymphoma cells (Landon, A. L. et al. Nat Commun 5, 5413, (2014)). […] Cell viability was assessed using alamarBlue. The p-value was calculated using one-way ANOVA followed by Sidak's multiple-comparisons test. […]

Data set [2] has as its system MB stem cells. The data set is described as follows: Medullosphere (tumor sphere) formation in serum-free stem cell media. The conditions noted are these: D556Med cells. Format: cell-based. As for the experimental part: Several research groups have posited the presence of tumor-initiating cells in MBs (Manoranjan, B. et al. Pediatr Res 71, 516-522, (2012)). Moreover, the tumor-initiating cells in general have not responded to radiation and chemotherapy drugs (Manoranj an, B. et al. Pediatr Res 71, 516-522, (2012)). Therefore, it was tested whether miR-584 may inhibit MB tumor-initiating cell proliferation. Consistent with the characteristics of tumor-initiating cells, MB cells cultured in serum-free stem cell media formed tumor spheres that were serially passaged for many cycles (FIG. 14A). Bar graphs show number and size of medullospheres obtained from D556Med cells transfected with miR-NC or miR-584-5p mimic. The p-value was calculated using a standard Student t-test. Error bars represent mean±SEM. […] The p-value was calculated using one-way ANOVA followed by Sidak's multiple-comparisons test. Error bars represent mean±SEM. These findings are highly significant because, this study is one of the first to propose a role for miR-584-5p and its target genes in regulating MB stem cell proliferation.

As for “miR-584-5p: microRNA mimic; nucleotide sequence UUAUGGUUUGCCUGGGACUGAG (SEQ ID NO: 1); purchased from Thermofisher (chemistry not given here)”, in data set [1], the “growth-promoting effect of c-Myc overexpression” value is “rescues cancer growth-promoting effects of c-Myc”. In addition, the “number and size of medullospheres / MB stem cell proliferation” value in data set [2] was “significantly smaller and fewer spheres”.
